Tests used:
HT-29 [1] = test: In vitro antiproliferative effect in […] HT 29 cells; type: functional, cell-based; conditions: Homo sapiens
Choline kinase alpha = Choline kinase alpha (Homo sapiens, UniProt P35790); test: Ex vivo inhibitory concentration against human choline kinase
HT-29 [2] = test: Antiproliferative activity against HT 29 cells; type: functional, cell-based; conditions: Homo sapiens

Choline kinase alpha, sequence (P35790 whole entry): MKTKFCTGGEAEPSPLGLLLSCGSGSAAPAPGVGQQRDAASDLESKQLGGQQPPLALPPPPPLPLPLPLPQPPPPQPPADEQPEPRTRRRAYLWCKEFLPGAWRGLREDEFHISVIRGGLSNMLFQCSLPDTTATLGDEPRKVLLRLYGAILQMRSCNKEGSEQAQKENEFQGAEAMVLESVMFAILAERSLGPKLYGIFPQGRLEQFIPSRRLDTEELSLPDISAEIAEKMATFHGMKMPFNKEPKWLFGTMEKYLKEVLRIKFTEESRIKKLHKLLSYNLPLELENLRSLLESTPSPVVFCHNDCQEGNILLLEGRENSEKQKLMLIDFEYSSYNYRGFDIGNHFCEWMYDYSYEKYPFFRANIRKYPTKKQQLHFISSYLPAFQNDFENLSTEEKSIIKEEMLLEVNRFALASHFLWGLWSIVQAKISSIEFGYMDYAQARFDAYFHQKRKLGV

Structure (SMILES) | IC50 (HT-29 [1]) | IC50 (Choline kinase alpha) | IC50 (HT-29 [2])
c1ccc(Nc2cc[n+](Cc3cccc(-c4cccc(C[n+]5ccc(Nc6ccccc6)c6ccccc65)c4)c3)c3ccccc23)cc1 | 1600 nM | 1300 nM | 
Cc1c(N)ccc2c(N(C)c3ccccc3)cc[n+](Cc3cccc(-c4cccc(C[n+]5ccc(N(C)c6ccccc6)c6ccc(N)c(C)c65)c4)c3)c12 | 3800 nM | 56800 nM | 
c1ccc(Nc2cc[n+](Cc3ccc(-c4ccc(C[n+]5ccc(Nc6ccccc6)c6ccccc65)cc4)cc3)c3ccccc23)cc1 | 700 nM | 17800 nM | 
CN(c1ccc(Cl)cc1)c1cc[n+](Cc2ccc(CCc3ccc(C[n+]4ccc(N(C)c5ccc(Cl)cc5)c5ccc(Cl)cc54)cc3)cc2)c2cc(Cl)ccc12 | 800 nM |  | 
Cc1c(N)ccc2c(N(C)c3ccccc3)cc[n+](Cc3ccc(CCc4ccc(C[n+]5ccc(N(C)c6ccccc6)c6ccc(N)c(C)c65)cc4)cc3)c12 | 7000 nM | 133000 nM | 
Nc1cc[n+](Cc2ccc(CCc3ccc(C[n+]4ccc(N)c5ccccc54)cc3)cc2)c2ccccc12 | 2000 nM | 80000 nM | 
c1ccc2c(c1)c(N1CCCCCC1)cc[n+]2Cc1ccc(CCc2ccc(C[n+]3ccc(N4CCCCCC4)c4ccccc43)cc2)cc1 | 300 nM | 600 nM | 
c1ccc(Nc2cc[n+](Cc3ccc(CCc4ccc(C[n+]5ccc(Nc6ccccc6)c6ccccc65)cc4)cc3)c3ccccc23)cc1 | 300 nM | 2300 nM | 
CN(c1ccccc1)c1cc[n+](Cc2ccc(CCc3ccc(C[n+]4ccc(N(C)c5ccccc5)c5ccccc54)cc3)cc2)c2ccccc12 | 700 nM | 1400 nM | 
Cc1c[n+](Cc2ccc(-c3ccc(C[n+]4cc(C)c(N)c5ccccc54)cc3)cc2)c2ccccc2c1N | 3300 nM | > 200000 nM | 
Clc1ccc2c(N3CCCC3)cc[n+](Cc3ccc(-c4ccc(C[n+]5ccc(N6CCCC6)c6ccc(Cl)cc65)cc4)cc3)c2c1 | 2400 nM | 19800 nM | 
Cc1c[n+](Cc2cccc(-c3cccc(C[n+]4cc(C)c(N)c5ccccc54)c3)c2)c2ccccc2c1N | 4400 nM | 11900 nM | 
c1ccc2c(c1)c(N1CCCCCC1)cc[n+]2Cc1ccc(-c2ccc(C[n+]3ccc(N4CCCCCC4)c4ccccc43)cc2)cc1 | 500 nM | 2200 nM | 
Nc1cc[n+](Cc2ccc(-c3ccc(C[n+]4ccc(N)c5ccccc54)cc3)cc2)c2ccccc12 | 2200 nM | 81100 nM | 
Clc1ccc2c(N3CCCC3)cc[n+](Cc3ccc(CCc4ccc(C[n+]5ccc(N6CCCC6)c6ccc(Cl)cc65)cc4)cc3)c2c1 | 200 nM |  | 
Cc1c(N)ccc2c(N(C)c3ccc(Cl)cc3)cc[n+](Cc3ccc(-c4ccc(C[n+]5ccc(N(C)c6ccc(Cl)cc6)c6ccc(N)c(C)c65)cc4)cc3)c12 | 19400 nM | 46100 nM | 
CN(c1ccc(Cl)cc1)c1cc[n+](Cc2ccc(CCc3ccc(C[n+]4ccc(N(C)c5ccc(Cl)cc5)c5ccccc54)cc3)cc2)c2ccccc12 | 700 nM |  | 
Cc1c(N)ccc2c(N(C)c3ccc(Cl)cc3)cc[n+](Cc3ccc(CCc4ccc(C[n+]5ccc(N(C)c6ccc(Cl)cc6)c6ccc(N)c(C)c65)cc4)cc3)c12 | 19500 nM | 57500 nM | 
c1cc(C[n+]2ccc(N3CCCCCC3)c3ccccc32)cc(-c2cccc(C[n+]3ccc(N4CCCCCC4)c4ccccc43)c2)c1 | 500 nM | 500 nM | 
Cc1c(N)ccc2c(N(C)c3ccccc3)cc[n+](Cc3ccc(-c4ccc(C[n+]5ccc(N(C)c6ccccc6)c6ccc(N)c(C)c65)cc4)cc3)c12 | 25200 nM | 96100 nM | 
CN(c1ccccc1)c1cc[n+](Cc2ccc(-c3ccc(C[n+]4ccc(N(C)c5ccccc5)c5ccccc54)cc3)cc2)c2ccccc12 | 600 nM | 3000 nM | 
CN(c1ccc(Cl)cc1)c1cc[n+](Cc2ccc(-c3ccc(C[n+]4ccc(N(C)c5ccc(Cl)cc5)c5ccccc54)cc3)cc2)c2ccccc12 [RSM-932A] | 1200 nM |  | 

Second part, the compound after the results:

IC50 (HT-29 [1]) | IC50 (Choline kinase alpha) | IC50 (HT-29 [2]) | Structure (SMILES)
400 nM |  |  | Clc1ccc2c(N3CCCC3)cc[n+](Cc3cccc(-c4cccc(C[n+]5ccc(N6CCCC6)c6ccc(Cl)cc65)c4)c3)c2c1
800 nM | 400 nM |  | CN(c1ccccc1)c1cc[n+](Cc2cccc(-c3cccc(C[n+]4ccc(N(C)c5ccccc5)c5ccccc54)c3)c2)c2ccccc12
1900 nM | 20600 nM |  | Nc1cc[n+](Cc2cccc(-c3cccc(C[n+]4ccc(N)c5ccc(Cl)cc54)c3)c2)c2cc(Cl)ccc12
1200 nM |  |  | CN(c1ccc(Cl)cc1)c1cc[n+](Cc2ccc(-c3ccc(C[n+]4ccc(N(C)c5ccc(Cl)cc5)c5ccc(Cl)cc54)cc3)cc2)c2cc(Cl)ccc12
500 nM | 11400 nM |  | CN(c1ccccc1)c1cc[n+](Cc2ccc(-c3ccc(C[n+]4ccc(N(C)c5ccccc5)c5ccc(Cl)cc54)cc3)cc2)c2cc(Cl)ccc12
1700 nM | 39700 nM |  | CN(C)c1cc[n+](Cc2ccc(-c3ccc(C[n+]4ccc(N(C)C)c5ccccc54)cc3)cc2)c2ccccc12
3200 nM | 63300 nM |  | Nc1cc[n+](Cc2ccc(-c3ccc(C[n+]4ccc(N)c5ccc(Cl)cc54)cc3)cc2)c2cc(Cl)ccc12
500 nM | 10200 nM |  | CN(C)c1cc[n+](Cc2ccc(CCc3ccc(C[n+]4ccc(N(C)C)c5ccccc54)cc3)cc2)c2ccccc12
500 nM | 3500 nM |  | CN(c1ccccc1)c1cc[n+](Cc2ccc(CCc3ccc(C[n+]4ccc(N(C)c5ccccc5)c5ccc(Cl)cc54)cc3)cc2)c2cc(Cl)ccc12
700 nM |  |  | CN(C)c1cc[n+](Cc2cccc(-c3cccc(C[n+]4ccc(N(C)C)c5ccc(Cl)cc54)c3)c2)c2cc(Cl)ccc12
800 nM | 20600 nM |  | CN(C)c1cc[n+](Cc2ccc(-c3ccc(C[n+]4ccc(N(C)C)c5ccc(Cl)cc54)cc3)cc2)c2cc(Cl)ccc12
1000 nM | 3100 nM |  | CN(c1ccccc1)c1cc[n+](Cc2cccc(-c3cccc(C[n+]4ccc(N(C)c5ccccc5)c5ccc(Cl)cc54)c3)c2)c2cc(Cl)ccc12
1900 nM |  |  | CN(c1ccc(Cl)cc1)c1cc[n+](Cc2cccc(-c3cccc(C[n+]4ccc(N(C)c5ccc(Cl)cc5)c5ccc(Cl)cc54)c3)c2)c2cc(Cl)ccc12
1900 nM | 1200 nM |  | Nc1cc[n+](Cc2cccc(-c3cccc(C[n+]4ccc(N)c5ccccc54)c3)c2)c2ccccc12
1600 nM | 4400 nM |  | CN(C)c1cc[n+](Cc2cccc(-c3cccc(C[n+]4ccc(N(C)C)c5ccccc54)c3)c2)c2ccccc12
1900 nM | > 200000 nM |  | Nc1cc[n+](Cc2ccc(CCc3ccc(C[n+]4ccc(N)c5ccc(Cl)cc54)cc3)cc2)c2cc(Cl)ccc12
1500 nM |  |  | CN(c1ccc(Cl)cc1)c1cc[n+](Cc2cccc(-c3cccc(C[n+]4ccc(N(C)c5ccc(Cl)cc5)c5ccccc54)c3)c2)c2ccccc12
270 nM | 9000 nM | 450 nM | CN(C)c1cc[n+](Cc2ccc(CCc3ccc(C[n+]4ccc(N(C)C)c5ccc(Cl)cc54)cc3)cc2)c2cc(Cl)ccc12
33000 nM | 147000 nM |  | Cc1c(N)ccc2c(N(C)c3ccc(Cl)cc3)cc[n+](Cc3cccc(-c4cccc(C[n+]5ccc(N(C)c6ccc(Cl)cc6)c6ccc(N)c(C)c65)c4)c3)c12

— ChEMBL document CHEMBL1144422, “Symmetrical bis-quinolinium compounds: new human choline kinase inhibitors with antiproliferative activity against the HT-29 cell line” (J Med Chem, 2005)
